Legend:
ivyleaf morning glory = assay: Field trial in corn at V3, broadcast treatment on 2-4 inch weeds, % weed control; type: in vivo, Ipomoea hederacea
Description: (§1) The herbicides tested were glufosinate, glyphosate, and mesotrione. Each herbicide was combined at the specified rate with either deionized water or SymMAX™ supramolecular host water mixture commercially available from Shotwell Hydrogenics at 15 gallons per acre (GPA). Specified rates for glufosinate were 22 ounces per acre, 11 ounces per acre, and 5.5 ounces per acre. Specified rates for glyphosate were 22 ounces per acre, 11 ounces per acre, and 5.5 ounces per acre. Specified rates for mesotrione were 3 ounces per acre, 2 ounces per acre, and 1 ounce per acre.
(§2) This example was conducted as a 4 replicate, RCBD (randomized control block design) in Quitman, GA. An untreated control was used as a standard that provided no weed control and no phytotoxicity. All treatments were compared to the untreated control. Counted dead weeds and living weeds were used to determine % weed control. The untreated control was also used to determine % crop phytotoxicity for the crop. Typical indications of phytotoxicity include chlorosis, stunting, epinasty, and/or leaf burn.
(§3) The trial ran for 14 days with weekly data assessments taken on % crop phytotoxicity and % weed control of four key species: palmer amaranth (Amaranthus palmeri), ivyleaf morning glory (Ipomoea hederacea), fall panicum (Panicum dichotomiflorum) and large crabgrass (Digitaria sanguinalis The test field was over seeded with weed seed obtained from the University of Georgia prior to corn planting. Treatments were applied as a broadcast treatment when corn had reached physiological growth stage V3 and weeds were in the 2-4″ size range. Treatments were applied at various rates ranging from about 1 ounce per acre to about 22 ounces per acre. Tables 9-10 show the % weed control when the weeds are treated with glufosinate. Tables 11-12 show the % weed control when the weeds are treated with glyphosphate. Tables 13-14 show the % weed control when the weeds are treated with mesotrione.

fall panicum [1] = assay: as above; type: in vivo, Panicum dichotomiflorum
Description: as §1, §2, §3

large crabgrass [2] = assay: as above; type: in vivo, Digitaria sanguinalis
Description: as §1, §2, §3

palmer amaranth [3] = assay: as above; type: in vivo, Amaranthus palmeri
Description: as §1, §2, §3

palmer amaranth [4] = assay: Field trial in corn, herbicide applied 3 days after planting, % weed control; type: in vivo, Amaranthus palmeri
Description: (§4) The herbicides tested were acetochlor and s-metolachlor. Each herbicide was combined at the specified rate with either deionized water or SymMAX™ supramolecular host chemistry that is commercially available from Shotwell Hydrogenics at 15 gallons per acre (GPA). Specified rates for acetochlor were 0.5 parts per acre, 1 part per acre, and 2 parts per acre. […]
as §2
(§5) The trial ran for 28 days with weekly data assessments taken on % crop phytotoxicity and % weed control of three key species: palmer amaranth (Amaranthus palmeri), fall panicum (Panicum dichotomiflorum) and large crabgrass (Digitaria sanguinalis). The test field was over seeded with weed seed obtained from the University of Georgia prior to corn planting. Treatments were applied 3 days after planting as a broadcast application at various rates ranging from about 0.5 parts per acre to about 2 parts per acre. Tables 1-4 show the % weed control when the weeds are treated with acetachlor. Tables 4-8 show the % weed control when the weeds are treated with s-metolachlor.

large crabgrass [5] = assay: as above; type: in vivo, Digitaria sanguinalis
Description: as §4, §2, §5

fall panicum [6] = assay: as above; type: in vivo, Panicum dichotomiflorum
Description: as §4, §2, §5

[7] = 7 days, mesotrione 1 ounce/acre
[8] = 7 days, mesotrione 2 ounces/acre
[9] = 7 days, mesotrione 3 ounces/acre
[10] = 14 days, mesotrione 1 ounce/acre
[11] = 14 days, mesotrione 2 ounces/acre
[12] = 14 days, mesotrione 3 ounces/acre
[13] = 7 days, acetochlor 0.5 part/acre
[14] = 7 days, acetochlor 2 parts/acre
[15] = 14 days, acetochlor 0.5 part/acre
[16] = 14 days, acetochlor 1 part/acre
[17] = 14 days, acetochlor 2 parts/acre
[18] = 21 days, acetochlor 0.5 part/acre
[19] = 21 days, acetochlor 1 part/acre
[20] = 21 days, acetochlor 2 parts/acre
[21] = 28 days, acetochlor 0.5 part/acre
[22] = 28 days, acetochlor 1 part/acre
[23] = 28 days, acetochlor 2 parts/acre

For CS(=O)(=O)c1ccc(C(=O)C2C(=O)CCCC2=O)c([N+](=O)[O-])c1 [Mesotrione, mesotrione], the “% WEED CONTROL FOR IVYLEAF MORNINGLORY” value (ivyleaf morning glory; [7]) was 64.5%, the “% WEED CONTROL FOR IVYLEAF MORNINGLORY” value (ivyleaf morning glory; [8]) was 91.6% and the “% WEED CONTROL FOR IVYLEAF MORNINGLORY” value (ivyleaf morning glory; [9]) was 94.2%. For the same molecule, the “% WEED CONTROL FOR IVYLEAF MORNINGLORY” value (ivyleaf morning glory; [10]) was 88.8%, the “% WEED CONTROL FOR IVYLEAF MORNINGLORY” value (ivyleaf morning glory; [11]) was 96.5% and the “% WEED CONTROL FOR IVYLEAF MORNINGLORY” value (ivyleaf morning glory; [12]) was 99.1%. The “% WEED CONTROL FOR FALL PANICUM” value (fall panicum [1]; [7]) was 62.8%, the “% WEED CONTROL FOR FALL PANICUM” value (fall panicum [1]; [8]) was 72.3% and the “% WEED CONTROL FOR FALL PANICUM” value (fall panicum [1]; [9]) was 87.3%. For the same molecule, the “% WEED CONTROL FOR FALL PANICUM” value (fall panicum [1]; [10]) was 54.8%, the “% WEED CONTROL FOR FALL PANICUM” value (fall panicum [1]; [11]) was 62.3% and the “% WEED CONTROL FOR FALL PANICUM” value (fall panicum [1]; [12]) was 86.0%. For the same molecule, the “% WEED CONTROL FOR LARGE CRABGRASS” value (large crabgrass [2]; [7]) was 62.3%, the “% WEED CONTROL FOR LARGE CRABGRASS” value (large crabgrass [2]; [8]) was 81.5% and the “% WEED CONTROL FOR LARGE CRABGRASS” value (large crabgrass [2]; [9]) was 91.5%. The “% WEED CONTROL FOR LARGE CRABGRASS” value (large crabgrass [2]; [10]) was 63.0%, the “% WEED CONTROL FOR LARGE CRABGRASS” value (large crabgrass [2]; [11]) was 78.8% and the “% WEED CONTROL FOR LARGE CRABGRASS” value (large crabgrass [2]; [12]) was 88.5%. The “% WEED CONTROL FOR PALMER AMARANTH” value (palmer amaranth [3]; [7]) was 87.4%, the “% WEED CONTROL FOR PALMER AMARANTH” value (palmer amaranth [3]; [8]) was 97.7% and the “% WEED CONTROL FOR PALMER AMARANTH” value (palmer amaranth [3]; [9]) was 99.0%. The “% WEED CONTROL FOR PALMER AMARANTH” value (palmer amaranth [3]; [10]) was 95.1%, the “% WEED CONTROL FOR PALMER AMARANTH” value (palmer amaranth [3]; [11]) was 97.0% and the “% WEED CONTROL FOR PALMER AMARANTH” value (palmer amaranth [3]; [12]) was 99.3%.

In the case of CCOCN(C(=O)CCl)c1c(C)cccc1CC [Acetochlor, acetochlor], the “% WEED CONTROL FOR PALMER AMARANTH” value (palmer amaranth [4]; [13]) is reported as 87.0%, the “% WEED CONTROL FOR PALMER AMARANTH” value (palmer amaranth [4]; 7 days, acetochlor 1 part/acre) is reported as 88.5% and the “% WEED CONTROL FOR PALMER AMARANTH” value (palmer amaranth [4]; [14]) is reported as 93.3%. For the same molecule, the “% WEED CONTROL FOR PALMER AMARANTH” value (palmer amaranth [4]; [15]) was 82.3%, the “% WEED CONTROL FOR PALMER AMARANTH” value (palmer amaranth [4]; [16]) was 87.0% and the “% WEED CONTROL FOR PALMER AMARANTH” value (palmer amaranth [4]; [17]) was 97.7%. For the same molecule, the “% WEED CONTROL FOR PALMER AMARANTH” value (palmer amaranth [4]; [18]) was 61.7%, the “% WEED CONTROL FOR PALMER AMARANTH” value (palmer amaranth [4]; [19]) was 81.0% and the “% WEED CONTROL FOR PALMER AMARANTH” value (palmer amaranth [4]; [20]) was 90.0%. The “% WEED CONTROL FOR PALMER AMARANTH” value (palmer amaranth [4]; [21]) was 44.5%, the “% WEED CONTROL FOR PALMER AMARANTH” value (palmer amaranth [4]; [22]) was 67.4% and the “% WEED CONTROL FOR PALMER AMARANTH” value (palmer amaranth [4]; [23]) was 99.7%. For the same molecule, the “% WEED CONTROL FOR LARGE CRABGRASS” value (large crabgrass [5]; [13]) was 69.5%, the “% WEED CONTROL FOR LARGE CRABGRASS” value (large crabgrass [5]; 7 days, acetochlor 1 part/acre) was 74.5% and the “% WEED CONTROL FOR LARGE CRABGRASS” value (large crabgrass [5]; [14]) was 87.0%. For the same molecule, the “% WEED CONTROL FOR LARGE CRABGRASS” value (large crabgrass [5]; [15]) was 45.8%, the “% WEED CONTROL FOR LARGE CRABGRASS” value (large crabgrass [5]; [16]) was 49.0% and the “% WEED CONTROL FOR LARGE CRABGRASS” value (large crabgrass [5]; [17]) was 74.5%. The “% WEED CONTROL FOR LARGE CRABGRASS” value (large crabgrass [5]; [18]) was 45.3%, the “% WEED CONTROL FOR LARGE CRABGRASS” value (large crabgrass [5]; [19]) was 43.0% and the “% WEED CONTROL FOR LARGE CRABGRASS” value (large crabgrass [5]; [20]) was 73.3%. The “% WEED CONTROL FOR LARGE CRABGRASS” value (large crabgrass [5]; [21]) was 47.8%, the “% WEED CONTROL FOR LARGE CRABGRASS” value (large crabgrass [5]; [22]) was 48.0% and the “% WEED CONTROL FOR LARGE CRABGRASS” value (large crabgrass [5]; [23]) was 92.1%. The “% WEED CONTROL FOR FALL PANICUM” value (fall panicum [6]; [13]) was 65.5%, the “% WEED CONTROL FOR FALL PANICUM” value (fall panicum [6]; 7 days, acetochlor 1 part/acre) was 69.3% and the “% WEED CONTROL FOR FALL PANICUM” value (fall panicum [6]; [14]) was 87.3%. The “% WEED CONTROL FOR FALL PANICUM” value (fall panicum [6]; [15]) was 49.3%, the “% WEED CONTROL FOR FALL PANICUM” value (fall panicum [6]; [16]) was 53.0% and the “% WEED CONTROL FOR FALL PANICUM” value (fall panicum [6]; [17]) was 78.0%. For the same molecule, the “% WEED CONTROL FOR FALL PANICUM” value (fall panicum [6]; [18]) was 37.6%, the “% WEED CONTROL FOR FALL PANICUM” value (fall panicum [6]; [19]) was 40.9% and the “% WEED CONTROL FOR FALL PANICUM” value (fall panicum [6]; [20]) was 81.3%. For the same molecule, the “% WEED CONTROL FOR FALL PANICUM” value (fall panicum [6]; [21]) was 60.0%, the “% WEED CONTROL FOR FALL PANICUM” value (fall panicum [6]; [22]) was 57.3% and the “% WEED CONTROL FOR FALL PANICUM” value (fall panicum [6]; [23]) was 88.0%.

— patent US20230109010A1, “PESTICIDE COMPOSITIONS WITH SUPRAMOLECULAR STRUCTURES FOR AGRICULTURAL USE” (BPS JUST ENERGY TECHNOLOGY, LLC, priority 2020, published 2023)
